# In US20090191137A1, “Method and Material for Controlling or Eliminating Potentially Harmful, Contaminating or Nuisance Micro-Organisms or Cells” (priority 2007, published 2009):
# System: algae (Chlamydomonas)
# Assay: NM7O added to a suspension of algae (algaecide test)
# Type: cell-based
# Settings: algae 1×10^6 cells/ml in tubes
# From the text: The color change can serve as a valuable indicator of activity, as untreated NM7O remains suspended and violet colored.
# This may be due to the requirement of direct contact between the product and the algae.
compound,measurement,value
O=S(=O)([O-])[O-].[Cu+2] [copper sulfate],effect on algal suspension (appearance of the solution),the solution turned blue
same,microscopic evaluation of the sediment (appearance of treated cells),appeared intact with full cellular contents
